In paper PMC3517602 (PLoS ONE, 2012):

Target: T1, neuropeptide Y Y1 receptor (Y1R) (Homo sapiens, UniProt P25929)
T1 construct: gene NPY1R
T1 sequence (P25929 1-384): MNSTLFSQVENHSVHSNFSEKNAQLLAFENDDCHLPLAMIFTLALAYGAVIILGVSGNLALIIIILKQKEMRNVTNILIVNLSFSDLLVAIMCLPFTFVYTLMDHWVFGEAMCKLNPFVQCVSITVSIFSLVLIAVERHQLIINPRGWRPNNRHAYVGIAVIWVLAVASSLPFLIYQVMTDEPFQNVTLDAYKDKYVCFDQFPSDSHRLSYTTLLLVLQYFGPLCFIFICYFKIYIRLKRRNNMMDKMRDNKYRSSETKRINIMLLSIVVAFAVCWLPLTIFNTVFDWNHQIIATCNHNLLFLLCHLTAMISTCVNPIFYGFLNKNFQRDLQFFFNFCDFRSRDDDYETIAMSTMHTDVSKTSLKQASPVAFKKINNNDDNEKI
Assay: radioligand saturation binding on whole MCF-7 (L) cells
Type: cell-based

Kd: 5 nM
Structure (SMILES): CCC(=O)/N=C(/N)NCCC[C@@H](NC(=O)C(c1ccccc1)c1ccccc1)C(=O)NCc1ccc(O)cc1 [[^3H]-UR-MK114]
